How the values were obtained:
[1] = target: CDK7 (Homo sapiens (Human), UniProt P50613); experiment: In vitro inhibitory activity against CDK7 (Table 1); type: biochemical
Method: In vitro kinase assays with immunoprecipitated proteins (or recombinant CAK complexes) were performed as follows. Kinase reactions were performed in 25 μL of final volume of reaction buffer (50 mM Hepes, pH 7.5, 150 mM NaCl, 10 mM MgCl2, 5% glycerol, 25 μM ATP, and 10 μCi of [γ-32P]ATP). Each reaction contained 1 μg of RNAP II. Incubation was at 30° C. for 30-45 min. Reactions were terminated by addition of 5 μL of 5×SDS-PAGE sample buffer and incubated at 95° C. for 5 min. Reactions were analyzed by SDS-PAGE, and the dried gel was exposed to film or PhosphorImager plate.

[2] = system: Jurkat; experiment: Jurkat (proliferation, CellTiter-Glo); type: cell-based; settings: Homo sapiens, Jurkat; read-out: Calculated IC50, Jurkat
[3] = target: IRAK1 (Homo sapiens (Human), UniProt P51617); experiment: Life Technologies Adapta kinase assay, IRAK1; type: biochemical; settings: superscript b (footnote not given; tested at 100 nM and 1 μM)
Sequence of IRAK1 (P51617 whole entry): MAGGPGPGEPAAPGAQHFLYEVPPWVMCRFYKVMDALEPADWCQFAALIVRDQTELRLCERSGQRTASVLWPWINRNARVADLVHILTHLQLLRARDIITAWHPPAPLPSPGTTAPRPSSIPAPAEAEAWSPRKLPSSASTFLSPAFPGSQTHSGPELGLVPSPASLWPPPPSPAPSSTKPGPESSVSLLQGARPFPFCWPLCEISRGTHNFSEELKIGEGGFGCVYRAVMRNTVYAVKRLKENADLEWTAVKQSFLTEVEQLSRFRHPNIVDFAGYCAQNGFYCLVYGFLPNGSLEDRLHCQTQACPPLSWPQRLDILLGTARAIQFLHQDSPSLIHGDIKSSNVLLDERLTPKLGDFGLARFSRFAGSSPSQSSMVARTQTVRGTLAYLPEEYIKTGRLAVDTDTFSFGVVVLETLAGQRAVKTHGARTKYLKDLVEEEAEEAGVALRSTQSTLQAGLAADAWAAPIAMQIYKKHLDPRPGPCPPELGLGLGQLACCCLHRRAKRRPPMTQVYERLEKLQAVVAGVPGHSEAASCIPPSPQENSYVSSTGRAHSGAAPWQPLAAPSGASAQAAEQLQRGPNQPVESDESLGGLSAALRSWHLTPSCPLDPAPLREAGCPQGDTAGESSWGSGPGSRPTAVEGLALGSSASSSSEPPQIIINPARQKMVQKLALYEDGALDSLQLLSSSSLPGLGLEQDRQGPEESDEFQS

[4] = target: MLK3 (Homo sapiens (Human), UniProt Q16584); experiment: Life Technologies LanthaScreen Eu kinase assay, MLK3; type: binding; settings: superscript b (footnote not given; tested at 100 nM and 1 μM)
Sequence of MLK3 (Q16584 whole entry): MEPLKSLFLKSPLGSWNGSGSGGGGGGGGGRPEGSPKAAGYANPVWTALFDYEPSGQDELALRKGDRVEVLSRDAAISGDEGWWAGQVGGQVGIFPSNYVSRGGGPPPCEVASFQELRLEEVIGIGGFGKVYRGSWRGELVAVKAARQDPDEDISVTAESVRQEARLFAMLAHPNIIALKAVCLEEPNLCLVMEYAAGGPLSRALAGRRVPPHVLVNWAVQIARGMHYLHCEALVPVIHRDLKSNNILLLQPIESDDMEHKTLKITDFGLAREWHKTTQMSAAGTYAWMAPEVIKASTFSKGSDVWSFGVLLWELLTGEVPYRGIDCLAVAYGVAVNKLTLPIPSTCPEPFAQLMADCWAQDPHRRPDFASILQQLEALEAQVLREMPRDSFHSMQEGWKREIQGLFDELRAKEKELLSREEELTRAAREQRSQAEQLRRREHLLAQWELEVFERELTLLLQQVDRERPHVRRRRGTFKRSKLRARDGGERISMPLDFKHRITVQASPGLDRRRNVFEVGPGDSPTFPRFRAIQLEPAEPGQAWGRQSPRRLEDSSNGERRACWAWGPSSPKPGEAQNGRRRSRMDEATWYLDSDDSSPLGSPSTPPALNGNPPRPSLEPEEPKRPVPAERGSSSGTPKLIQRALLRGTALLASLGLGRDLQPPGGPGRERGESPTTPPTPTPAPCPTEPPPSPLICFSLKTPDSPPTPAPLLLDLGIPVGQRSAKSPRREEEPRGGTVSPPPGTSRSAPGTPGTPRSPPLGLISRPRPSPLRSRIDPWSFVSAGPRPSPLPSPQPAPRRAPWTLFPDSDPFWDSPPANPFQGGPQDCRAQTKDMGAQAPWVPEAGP

Sequence of CDK7 (P50613 whole entry, looked up): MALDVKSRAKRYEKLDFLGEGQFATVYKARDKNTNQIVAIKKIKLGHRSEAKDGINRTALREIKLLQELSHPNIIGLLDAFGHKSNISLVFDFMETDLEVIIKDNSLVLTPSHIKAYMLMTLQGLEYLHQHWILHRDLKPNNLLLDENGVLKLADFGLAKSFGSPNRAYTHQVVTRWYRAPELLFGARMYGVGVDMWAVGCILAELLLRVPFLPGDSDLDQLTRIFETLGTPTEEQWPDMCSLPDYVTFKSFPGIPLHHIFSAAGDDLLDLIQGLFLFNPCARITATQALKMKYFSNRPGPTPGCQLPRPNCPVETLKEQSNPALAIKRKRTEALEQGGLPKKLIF
Sequence of CDK7 (P51946 whole entry partner, looked up): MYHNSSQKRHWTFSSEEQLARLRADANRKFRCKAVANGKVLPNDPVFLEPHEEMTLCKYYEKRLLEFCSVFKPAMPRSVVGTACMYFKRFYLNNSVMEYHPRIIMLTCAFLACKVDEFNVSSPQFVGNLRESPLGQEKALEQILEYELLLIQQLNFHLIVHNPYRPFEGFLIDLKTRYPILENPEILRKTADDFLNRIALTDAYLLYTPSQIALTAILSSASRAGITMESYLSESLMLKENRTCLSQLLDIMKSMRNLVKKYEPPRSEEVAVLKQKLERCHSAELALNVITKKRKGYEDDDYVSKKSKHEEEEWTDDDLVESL
Sequence of CDK7 (P51948 whole entry partner, looked up): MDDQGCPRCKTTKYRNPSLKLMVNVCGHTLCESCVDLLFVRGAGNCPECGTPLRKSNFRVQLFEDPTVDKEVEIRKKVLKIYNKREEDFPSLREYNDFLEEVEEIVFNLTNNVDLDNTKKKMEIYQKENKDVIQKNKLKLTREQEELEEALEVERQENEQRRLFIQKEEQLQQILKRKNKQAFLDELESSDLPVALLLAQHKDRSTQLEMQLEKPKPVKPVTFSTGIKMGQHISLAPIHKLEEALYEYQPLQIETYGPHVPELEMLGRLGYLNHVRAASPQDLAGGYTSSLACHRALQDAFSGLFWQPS

Row | Structure (SMILES) | IC50 [1] [nM] | further results
1 | CN(C)C/C=C/C(=O)Nc1cccc(C(=O)Nc2cccc(Nc3ncc(Cl)c(-c4c[nH]c5ccccc45)n3)c2)c1 [Formula I-18] | 13.9 | 
2 | Cc1ccc(NC(=O)c2ccc(NC(=O)/C=C/CN(C)C)cc2)cc1Nc1ncc(Cl)c(-c2c[nH]c3ccccc23)n1 [Formula I-22] | 32.6 | 
3 | C=CC(=O)Nc1ccc(C(=O)Nc2cccc(Nc3ncc(Cl)c(-c4c[nH]c5ccccc45)n3)c2)cc1 [Formula I-24] | 40 | 
4 | CN(C)C/C=C/C(=O)Nc1ccc(C(=O)Nc2ccc(Cl)c(Nc3ncc(Cl)c(-c4c[nH]c5ccccc45)n3)c2)cc1 [Formula I-25] | 87.8 | 
5 | CN(C)C/C=C/C(=O)Nc1ccc(C(=O)Nc2cccc(Nc3ncc(Cl)c(-n4cnc5ccccc54)n3)c2)cc1 [Formula I-27] | 201 | 
6 | CN(C)C/C=C/C(=O)Nc1ccc(C(=O)Nc2cccc(Nc3ncc(Cl)c(-c4cn(C)c5ccccc45)n3)c2)cc1 [Formula I-28] | 238 | 
7 | CN(C)C/C=C/C(=O)Nc1ccc(C(=O)Nc2cccc(Nc3ncc(Cl)c(-c4cccc5[nH]ccc45)n3)c2)cc1 [Formula I-30] | 347 | 
8 | CN(C)C/C=C/C(=O)Nc1ccc(C(=O)Nc2cccc(Nc3ncc(Cl)c(-c4cccc5[nH]ccc45)n3)c2)cc1 [Formula I-31] | 416 | 
9 | CN(C)C/C=C/C(=O)Nc1ccc(C(=O)Nc2cccc(Nc3nc(-c4c[nH]c5ccccc45)c4ccccc4n3)c2)cc1 [Formula I-33] | 1420 | 
10 | CN(C)C/C=C/C(=O)Nc1ccc(C(=O)Nc2cccc(Nc3ncc(Cl)c(-c4cc5ccccc5[nH]4)n3)c2)cc1 [Formula I-34] | 4750 | 
11 | CCSC(=O)CCNc1ccc(C(=O)Nc2cccc(Nc3ncc(Cl)c(-c4c[nH]c5ccccc45)n3)c2)cc1 [Formula I-37] | 557 | 
12 | CN(C)C/C=C/C(=O)Nc1ccc(C(=O)Nc2cccc(Nc3ncc(Cl)c(-c4c(-c5ccccc5)nn5ccccc45)n3)c2)cc1 [Formula I-38] | 3010 | 
13 | Cc1nc(Nc2cccc(NC(=O)c3ccc(NC(=O)/C=C/CN(C)C)cc3)c2)nc(-c2c[nH]c3ccccc23)c1C [Formula I-39] | 1350 | 
14 | Cc1cccc2[nH]cc(-c3ccnc(Nc4cccc(NC(=O)c5ccc(NC(=O)/C=C/CN(C)C)cc5)c4)n3)c12 [Formula I-40] | 3470 | 
15 | Cc1cnc(Nc2cccc(NC(=O)c3ccc(NC(=O)/C=C/CN(C)C)cc3)c2)nc1-c1c[nH]c2cccc(C)c12 [Formula I-41] | 809 | 
16 | CN(C)C/C=C/C(=O)NCc1ccc(C(=O)Nc2cccc(Nc3ncc(Cl)c(-c4c[nH]c5ccccc45)n3)c2)cc1 [Formula I-43] | 36.2 | 
17 | CN(C)C/C=C/C(=O)Nc1ccc(C(=O)Nc2cccc(Nc3nccc(-c4c[nH]c5ccccc45)n3)c2)cc1 [Formula I-44] | 391 | 
18 | CN(C)C/C=C/C(=O)Nc1ccc(S(=O)(=O)Nc2cccc(Nc3ncc(Cl)c(-c4c[nH]c5ccccc45)n3)c2)cc1 [Formula I-52, (E)-N-(4-(N-(3-(5-chloro-4-(1H-indol-3-yl)pyrimidin-2-ylamino)phenyl)sulfamoyl)phenyl)-4-(dimethylamino)but-2-enamide] |  | IC50 [2]: 100 to 1000 nM
19 | CN(C)C/C=C/C(=O)Nc1ccc(S(=O)(=O)Nc2cccc(Nc3ncc(C#N)c(-c4c[nH]c5ccccc45)n3)c2)cc1 [Formula I-55, (E)-N-(4-(N-(3-(5-cyano-4-(1H-indol-3-yl)pyrimidin-2-ylamino)phenyl)sulfamoyl)phenyl)-4-(dimethylamino)but-2-enamide] |  | IC50 [2]: 100 to 1000 nM
20 | Cc1ccc(Nc2ncc(C#N)c(-c3c[nH]c4ccccc34)n2)cc1NC(=O)c1ccc(NC(=O)/C=C/CN(C)C)cc1 [Formula I-56, (E)-N-(5-(5-cyano-4-(1H-indol-3-yl)pyrimidin-2-ylamino)-2-methylphenyl)-4-(4-(dimethylamino)but-2-enamido)benzamide] |  | Percent inhibition, IRAK1^b [3]: C (less than 50% inhibition); Percent inhibition, MLK3^b [4]: C (less than 50% inhibition); IC50 [2]: < 100 nM
21 | CN(C)C/C=C/C(=O)Nc1ccc(C(=O)N(C)c2cccc(Nc3ncc(Cl)c(-c4c[nH]c5ccccc45)n3)c2)cc1 [Formula I-57, (E)-N-(3-(5-chloro-4-(1H-indol-3-yl)pyrimidin-2-ylamino)phenyl)-4-(4-(dimethylamino)but-2-enamido)-N-methylbenzamide] |  | Percent inhibition, IRAK1^b [3]: C (less than 50% inhibition); Percent inhibition, MLK3^b [4]: C (less than 50% inhibition); IC50 [2]: ≥ 1000 nM

More lines, main results first:

Row | IC50 [1] [nM] | Structure (SMILES) | further results
22 | 15.7 | Cc1cnc(Nc2cccc(NC(=O)c3ccc(NC(=O)/C=C/CN(C)C)cc3)c2)nc1-c1c[nH]c2ccccc12 [Formula I-19] | 
23 | 22.7 | CCc1cnc(Nc2cccc(NC(=O)c3ccc(NC(=O)/C=C/CN(C)C)cc3)c2)nc1-c1c[nH]c2ccccc12 [Formula I-21] | 
24 | 184 | CN(C)C/C=C/C(=O)Nc1ccc(C(=O)Nc2cccc(Nc3ncc(C4CC4)c(-c4c[nH]c5ccccc45)n3)c2)cc1 [Formula I-26] | 
25 | 288 | CN(C)C/C=C/C(=O)Nc1ccc(C(=O)Nc2cccc(Nc3ncc(Cl)c(-c4cnc5[nH]ccc5c4)n3)c2)cc1 [Formula I-29] | 
26 | 1180 | CN(C)C/C=C/C(=O)Nc1ccc(C(=O)Nc2cccc(Nc3ncc(Cl)c(-c4ccc5cc[nH]c5c4)n3)c2)cc1 [Formula I-32] | 
27 | 35.7 | CN(C)C/C=C/C(=O)Nc1ccc(C(=O)Nc2cccc(Nc3ncc(C(F)(F)F)c(-c4c[nH]c5ccccc45)n3)c2)cc1 [Formula I-42] | 
28 | 92.3 | Cc1nc(C)c(-c2nc(Nc3cccc(NC(=O)c4ccc(NC(=O)/C=C/CN(C)C)cc4)c3)ncc2Cl)s1 [Formula I-50] | 

From patent US10787436B2, “Inhibitors of cyclin-dependent kinase 7 (CDK7)” (Dana-Farber Cancer Institute, Inc., priority 2012, dated 2020)
